Laboratory results: ChEMBL document CHEMBL1153391 (J Med Chem, 2009)

Assays:
Procathepsin L = Procathepsin L (Homo sapiens, UniProt P07711); experiment: Inhibition of cathepsin L
[1] = Inhibition of Plasmodium falciparum falcipain-2
Cathepsin B = Cathepsin B (Homo sapiens, UniProt P07858); experiment: Inhibition of cathepsin B
Plasmodium falciparum = experiment: Antiplasmodial activity against Plasmodium falciparum FCBR; type: functional, organism-based
[2] = Apparent permeability across human Caco-2 cells; type: ADME, cell-based
[3] = Cytotoxicity against mouse DC
[4] = Cytotoxicity against mouse J774.1 cells; type: cell-based
[5] = Cytotoxicity against human HEK293T cells; type: cell-based; conditions: HEK-293T
[6] = Apparent permeability from apical to basolateral side of human Caco-2 cells
[7] = Apparent permeability from basolateral to apical side of human Caco-2 cells

Procathepsin L, sequence (P07711 whole entry): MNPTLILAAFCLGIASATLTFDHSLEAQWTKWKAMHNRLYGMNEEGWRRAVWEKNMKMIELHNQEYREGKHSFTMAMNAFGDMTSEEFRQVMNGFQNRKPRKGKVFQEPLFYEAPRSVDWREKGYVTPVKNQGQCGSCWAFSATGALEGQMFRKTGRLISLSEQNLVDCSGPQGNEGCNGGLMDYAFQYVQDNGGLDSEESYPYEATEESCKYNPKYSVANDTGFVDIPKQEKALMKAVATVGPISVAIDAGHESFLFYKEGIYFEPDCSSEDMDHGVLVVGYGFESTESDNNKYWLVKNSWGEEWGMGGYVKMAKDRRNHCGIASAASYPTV

Row | SMILES | Ki (Procathepsin L) | Ki [1] | Ki (Cathepsin B) | IC50 (Plasmodium falciparum) | other results
1 | CN(C)C(=O)/C=C/CNC(=O)CN1C(=O)[C@@H](COC(=O)Nc2ccc(Cl)cc2C(F)(F)F)N=C(c2ccccc2)c2ccccc21 | 1.9 µM | 0.076 µM | 0.85 µM | > 100 µM | 
2 | CN(C)C(=O)/C=C/[C@H](CCc1ccccc1)NC(=O)CN1C(=O)[C@@H](COC(=O)Nc2ccc(Cl)cc2C(F)(F)F)N=C(c2ccccc2)c2ccccc21 | 7.4 µM | 0.076 µM | 6.4 µM |  | 
3 | CC(C)C[C@H](NC(=O)[C@H]1O[C@@H]1C(=O)O)C(=O)NCCCCN=C(N)N [E-64] |  | 0.29 µM |  |  | 
4 | CC[C@]1(O)C[C@@H]2CN(CCc3c([nH]c4ccccc34)[C@@](C(=O)OC)(c3cc4c(cc3OC)N(C)[C@H]3[C@@](O)(C(=O)OC)[C@H](OC(C)=O)[C@]5(CC)C=CCN6CC[C@]43[C@@H]65)C2)C1 [VINBLASTINE] |  |  |  |  | Papp [2]: 0.51 ×10⁻⁶ cm/s
5 | COC(=O)/C=C/CNC(=O)CN1C(=O)[C@@H](COC(=O)Nc2ccc(Cl)cc2C(F)(F)F)N=C(c2ccccc2)c2ccccc21 | 8.4 µM | 0.017 µM | 7.3 µM | 12 µM | Papp [2]: 3.82 ×10⁻⁶ cm/s; IC50 [3]: 30.4 µM; IC50 [4]: 31.3 µM; IC50 [5]: 31.2 µM
6 | CC(=O)/C=C/CNC(=O)CN1C(=O)[C@@H](COC(=O)Nc2ccc(Cl)cc2C(F)(F)F)N=C(c2ccccc2)c2ccccc21 | 5.9 µM |  | 6 µM | 9.3 µM | 
7 | COC(=O)/C=C/[C@H](CCc1ccccc1)NC(=O)CN1C(=O)[C@@H](COC(=O)Nc2ccc(Cl)cc2C(F)(F)F)N=C(c2ccccc2)c2ccccc21 | 2.7 µM |  | 13.7 µM |  | 
8 | CN/C(=N/CCSCc1nc[nH]c1C)NC#N [CIMETIDINE] |  |  |  |  | Papp A→B [6]: 0.56 ×10⁻⁶ cm/s; Papp B→A [7]: 1.5 ×10⁻⁶ cm/s
9 | N#C/C=C/CNC(=O)CN1C(=O)[C@@H](COC(=O)Nc2ccc(Cl)cc2C(F)(F)F)N=C(c2ccccc2)c2ccccc21 | 3.2 µM | 0.19 µM | 9.9 µM | 36.1 µM | 
10 | CC(=O)/C=C/[C@H](CCc1ccccc1)NC(=O)CN1C(=O)[C@@H](COC(=O)Nc2ccc(Cl)cc2C(F)(F)F)N=C(c2ccccc2)c2ccccc21 | 7.5 µM |  | 8.4 µM |  | 
